#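 Cells were grown in 96-well plates and exposed to each compound for 48 hours at five concentrations; endpoints were interpolated linearly between bracketing concentrations, or set to the highest concentration if not reached. Here, GI50 denotes the concentration required for 50% inhibition of growth.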 Activity calls are given as the source filed them. Cut-off read from the data, not from the text of the source: active = GI50 up to about 1.1 µM and inactive = higher.
# How the values were obtained:
# Experiment in all cases: NCI tumour cell line growth inhibition, 48 h
# HL-60 = test system: HL-60
# KM12 = test system: KM12
# TK-10 = test system: TK-10
# SNB-78 = test system: SNB-78
# SF-268 = test system: SF-268
# SW-620 = test system: SW-620
# SF-539 = test system: SF-539
# A549 = test system: A549
# MOLT-4 = test system: MOLT-4
# SN12C = test system: SN12C
# SK-MEL-5 = test system: SK-MEL-5
# IGROV-1 = test system: IGROV-1
# DLD-1 = test system: DLD-1
# A498 = test system: A498
# OVCAR-3 = test system: OVCAR-3
# SF-295 = test system: SF-295
# HOP-18 = test system: HOP-18
# HCC 2998 = test system: HCC 2998
# LXFL 529 = test system: LXFL 529
# SK-MEL-28 = test system: SK-MEL-28
# NCI-H23 = test system: NCI-H23
# CCRF-CEM = test system: CCRF-CEM
# SNB-75 = test system: SNB-75
# SK-OV-3 = test system: SK-OV-3
# COLO 205 = test system: COLO 205
# DMS-114 = test system: DMS-114
# M14 = test system: M14
# OVCAR-8 = test system: OVCAR-8
# HCT-15 = test system: HCT-15
# NCI-H460 = test system: NCI-H460
# SNB-19 = test system: SNB-19
# ACHN = test system: ACHN
# HT-29 = test system: HT-29
# OVCAR-4 = test system: OVCAR-4
# K562 = test system: K562
# Malme-3M = test system: Malme-3M
# 786-0 = test system: 786-0
# NCI-H226 = test system: NCI-H226
# UACC-62 = test system: UACC-62
# OVCAR-5 = test system: OVCAR-5
# XF498 = test system: XF498
# SR = test system: SR
# M19-MEL = test system: M19-MEL
# U-251 = test system: U-251
# RXF 393 = test system: RXF 393
# EKVX = test system: EKVX
# UO-31 = test system: UO-31
# DMS-273 = test system: DMS-273
# RPMI-8226 = test system: RPMI-8226
# LOX IMVI = test system: LOX IMVI
# RXF 631 = test system: RXF 631
# UACC-257 = test system: UACC-257
# NCI-H522 = test system: NCI-H522
# KM-20L2 = test system: KM-20L2
# HCT-116 = test system: HCT-116
# CAKI-1 = test system: CAKI-1
# SK-MEL-2 = test system: SK-MEL-2
# HOP-62 = test system: HOP-62
smiles,measurement,setting,value
CC(=O)N1C(=O)C(=O)c2cc(Cl)ccc21,GI50,HL-60,> 100 µM (inactive)
same,GI50,KM12,> 100 µM (inactive)
same,GI50,TK-10,> 100 µM (inactive)
same,GI50,SNB-78,> 100 µM (inactive)
same,GI50,SF-268,> 100 µM (inactive)
same,GI50,SW-620,> 100 µM (inactive)
same,GI50,SF-539,> 100 µM (inactive)
same,GI50,A549,> 100 µM (inactive)
same,GI50,MOLT-4,> 100 µM (inactive)
same,GI50,SN12C,> 100 µM (inactive)
same,GI50,SK-MEL-5,> 100 µM (inactive)
same,GI50,IGROV-1,> 100 µM (inactive)
same,GI50,DLD-1,> 100 µM (inactive)
same,GI50,A498,> 100 µM (inactive)
same,GI50,OVCAR-3,> 100 µM (inactive)
same,GI50,SF-295,> 100 µM (inactive)
same,GI50,HOP-18,> 100 µM (inactive)
same,GI50,HCC 2998,> 100 µM (inactive)
same,GI50,LXFL 529,> 100 µM (inactive)
same,GI50,SK-MEL-28,> 100 µM (inactive)
same,GI50,NCI-H23,> 100 µM (inactive)
same,GI50,CCRF-CEM,> 10 µM (inactive)
same,GI50,SNB-75,> 100 µM (inactive)
same,GI50,SK-OV-3,> 100 µM (inactive)
same,GI50,COLO 205,> 100 µM (inactive)
same,GI50,DMS-114,> 100 µM (inactive)
same,GI50,M14,> 100 µM (inactive)
same,GI50,OVCAR-8,> 100 µM (inactive)
same,GI50,HCT-15,> 100 µM
same,GI50,NCI-H460,> 100 µM (inactive)
same,GI50,SNB-19,> 100 µM (inactive)
same,GI50,ACHN,> 100 µM (inactive)
same,GI50,HT-29,> 100 µM (inactive)
same,GI50,OVCAR-4,> 100 µM (inactive)
same,GI50,K562,> 100 µM (inactive)
same,GI50,Malme-3M,> 100 µM (inactive)
same,GI50,786-0,> 100 µM (inactive)
same,GI50,NCI-H226,> 100 µM (inactive)
same,GI50,UACC-62,> 100 µM (inactive)
same,GI50,OVCAR-5,> 100 µM (inactive)
same,GI50,XF498,0.234 µM (active)
same,GI50,SR,> 100 µM (inactive)
same,GI50,M19-MEL,> 100 µM (inactive)
same,GI50,U-251,> 100 µM (inactive)
same,GI50,RXF 393,> 100 µM (inactive)
same,GI50,EKVX,> 100 µM (inactive)
same,GI50,UO-31,> 100 µM (inactive)
same,GI50,DMS-273,> 100 µM (inactive)
same,GI50,RPMI-8226,> 100 µM (inactive)
same,GI50,LOX IMVI,> 100 µM (inactive)
same,GI50,RXF 631,> 100 µM (inactive)
c1ccc2c(c1)N=C(c1cccc3ccccc13)CC(c1ccc3c(c1)OCO3)S2 (stereo unspecified),GI50,HL-60,> 100 µM (inactive)
same,GI50,KM12,> 100 µM (inactive)
same,GI50,TK-10,> 100 µM (inactive)
same,GI50,UACC-257,> 100 µM (inactive)
same,GI50,SNB-78,> 100 µM (inactive)
same,GI50,SF-268,> 100 µM (inactive)
same,GI50,SW-620,> 100 µM (inactive)
same,GI50,SF-539,> 100 µM (inactive)
same,GI50,A549,> 100 µM (inactive)
same,GI50,MOLT-4,> 100 µM (inactive)
same,GI50,SN12C,> 100 µM (inactive)
same,GI50,SK-MEL-5,> 100 µM (inactive)
same,GI50,IGROV-1,> 100 µM (inactive)
same,GI50,DLD-1,> 100 µM (inactive)
same,GI50,A498,49 µM (inactive)
same,GI50,OVCAR-3,> 100 µM (inactive)
same,GI50,SF-295,53.6 µM (inactive)
same,GI50,HOP-18,> 100 µM (inactive)
same,GI50,HCC 2998,> 100 µM (inactive)
same,GI50,LXFL 529,> 100 µM (inactive)
same,GI50,SK-MEL-28,> 10 µM (inactive)
same,GI50,NCI-H23,> 100 µM (inactive)
same,GI50,CCRF-CEM,> 100 µM (inactive)
same,GI50,SNB-75,> 100 µM (inactive)
same,GI50,SK-OV-3,> 100 µM (inactive)
same,GI50,COLO 205,> 100 µM (inactive)
same,GI50,M14,25.4 µM (inactive)
same,GI50,OVCAR-8,> 100 µM (inactive)
same,GI50,NCI-H522,> 100 µM (inactive)
same,GI50,NCI-H460,> 100 µM (inactive)
same,GI50,KM-20L2,> 100 µM (inactive)
same,GI50,SNB-19,> 100 µM (inactive)
same,GI50,ACHN,> 100 µM (inactive)
same,GI50,HT-29,> 100 µM (inactive)
same,GI50,OVCAR-4,> 100 µM (inactive)
same,GI50,HCT-116,> 100 µM (inactive)
same,GI50,K562,> 100 µM (inactive)
same,GI50,Malme-3M,70.6 µM (inactive)
same,GI50,786-0,> 100 µM (inactive)
same,GI50,NCI-H226,> 100 µM (inactive)
same,GI50,UACC-62,> 100 µM (inactive)
same,GI50,OVCAR-5,> 100 µM (inactive)
same,GI50,XF498,> 100 µM (inactive)
same,GI50,SR,> 100 µM (inactive)
same,GI50,M19-MEL,> 100 µM (inactive)
same,GI50,CAKI-1,> 100 µM (inactive)
same,GI50,U-251,73.3 µM (inactive)
same,GI50,SK-MEL-2,> 100 µM (inactive)
same,GI50,RXF 393,> 100 µM (inactive)
same,GI50,HOP-62,> 100 µM (inactive)
same,GI50,EKVX,> 100 µM (inactive)
same,GI50,UO-31,> 100 µM (inactive)
same,GI50,DMS-273,> 100 µM (inactive)
same,GI50,LOX IMVI,> 100 µM (inactive)
same,GI50,RXF 631,> 100 µM (inactive)

# Reference: ChEMBL document CHEMBL1201862, “PubChem BioAssay data set” (2004)
